Converted amounts (≈) assume the structure as drawn. Like-named read-outs stand apart in the source and are kept apart here.
Legend:
[1] = test system: HepG2 cells; assay: HepG2 cytotoxicity; details: Homo sapiens, HepG2, read-out: HepG2 inhibitory concentration (IC50)
Source text: Assays to establish HepG2 cytotoxicity, in vitro microsomal/hepatocyte metabolic stability, aqueous kinetic solubility, and in vivo pharmacokinetic profiles were all performed as previously described.[15],[35]−[37]

[2] = physchem; assay type: physicochemical
[3] = test system: M. tuberculosis (H37Rv); assay: microbe, parasite or virus in culture; assay type: cell-based, Mycobacterium tuberculosis
[4] = assay type: in vitro ADME, mouse
[5] = physchem; details: pH 7.4
[6] = assay type: in vitro ADME, mouse; remark: listed apart in the source
[7] = pH 7.4, aqueous buffer, kinetic from dmso stock
[8] = Mycobacterium tuberculosis, H37RV, read-out: H37Rv MIC A
[9] = Mycobacterium tuberculosis, H37RV, read-out: H37Rv MIC B
[10] = Mycobacterium tuberculosis, H37RV, read-out: Wk2_7H9/DPPC/ casitone/ Tyloxapol MIC
[11] = Mycobacterium tuberculosis, H37RV, read-out: Wk2_ 7H9/DPPC/ cholesterol/BSA/ Tyloxapol MIC
[12] = Mycobacterium tuberculosis, H37RV, read-out: Wk2_7H9/glucose/ BSA/Tyloxapol MIC
[13] = Mycobacterium tuberculosis, H37RV, read-out: Wk2_7H9/glucose/ casitone/ Tyloxapol MIC
[14] = kinetic solubility in water, read-out: Kin. Sol
[15] = pH 7.4, aqueous buffer, kinetic from dmso stock, pH7.4, read-out: Kinetic Solubility pH7.4
[16] = intrinsic clearance (Cli), CD1 mouse liver microsomes, Tables 1-4

COC(=O)c1cnccc1NC(=O)c1c(F)c(F)c(F)c(F)c1F [Compound 16, COC(=O)c1cnccc1NC(=O)c1c(c(c(c(c1F)F)F)F)F]
IC50 [1]: 64 µM | solubility kinetic [2, 7]: 112 µM (≈ 38.8 µg/mL) | solubility kinetic ([2]; read-out: Kin. Sol): 112 µM (≈ 38.8 µg/mL) | MIC [3, 8]: 0.1 µM (≈ 0.0346 µg/mL) | MIC [3, 9]: 0.6 µM (≈ 0.208 µg/mL) | MIC [3, 10]: 0.1 µM (≈ 0.0346 µg/mL) | MIC [3, 11]: 0.6 µM (≈ 0.208 µg/mL) | MIC [3, 12]: 0.3 µM (≈ 0.104 µg/mL) | MIC [3, 13]: 0.15 µM (≈ 0.0519 µg/mL) | Hepatocyte Cli ([4]; mouse): >50 mL/min/g | Mouse Heps Cl ([4]; mouse, hepatocytes): >50 mLmin/g | chromatographic logD [5]: 3.2 | Microsomal Cli ([6]; CD1, mouse): 20 mL/min/g | Mouse micro Cl ([6]; mouse, microsomes): 20 mLmin/g

COC(=O)c1ccncc1NC(=O)c1c(F)c(F)c(F)c(F)c1F [Compound 18, COC(=O)c1ccncc1NC(=O)c1c(c(c(c(c1F)F)F)F)F]
IC50 [1]: > 100 µM | solubility kinetic [2, 7]: 109 µM (≈ 37.7 µg/mL) | solubility kinetic ([2]; read-out: Kin. Sol): 109 µM (≈ 37.7 µg/mL) | MIC [3, 8]: 4.7 µM (≈ 1.63 µg/mL) | MIC [3, 9]: 12.5 µM (≈ 4.33 µg/mL) | MIC [3, 10]: 4.7 µM (≈ 1.63 µg/mL) | MIC [3, 11]: 12.5 µM (≈ 4.33 µg/mL) | MIC [3, 12]: 12.5 µM (≈ 4.33 µg/mL) | MIC [3, 13]: 4.7 µM (≈ 1.63 µg/mL) | chromatographic logD [5]: 2.8 | Microsomal Cli ([6]; CD1, mouse): 27 mL/min/g | Mouse micro Cl ([6]; mouse, microsomes): 27 mLmin/g

COC(=O)c1nn(C)cc1NC(=O)c1c(F)c(F)c(F)c(F)c1F [Compound 19, COC(=O)c1nn(cc1NC(=O)c1c(c(c(c(c1F)F)F)F)F)C]
IC50 [1]: > 100 µM | solubility kinetic [2, 14]: 55 µM (≈ 19.2 µg/mL) | solubility kinetic [2, 15]: 55 µM (≈ 19.2 µg/mL) | MIC [3, 8]: 0.15 µM (≈ 0.0524 µg/mL) | MIC [3, 10]: 0.15 µM (≈ 0.0524 µg/mL) | MIC [3, 12]: 0.3 µM (≈ 0.105 µg/mL) | MIC [3, 13]: 0.2 µM (≈ 0.0698 µg/mL) | Mouse Heps Cl ([4]; intrinsic clearance (Cli), mouse hepatocytes, Tables 1-4): >50 mLmin/g | Hepatocyte Cli ([4]; supplement data table): >50 mL/min/g | chromatographic logD [5]: 2.7 | Mouse micro Cl [6, 16]: 23 mLmin/g | Microsomal Cli ([6]; supplement data table): 23 mL/min/g

CCOC(=O)c1c(NC(=O)c2c(F)c(F)c(F)c(F)c2F)ncn1C [Compound 21, CCOC(=O)c1c(ncn1C)NC(=O)c1c(c(c(c(c1F)F)F)F)F]
IC50 [1]: > 100 µM | solubility kinetic [2, 14]: 203 µM (≈ 73.7 µg/mL) | solubility kinetic [2, 15]: 203 µM (≈ 73.7 µg/mL) | MIC [3, 8]: 2.3 µM (≈ 0.835 µg/mL) | MIC [3, 9]: 6.3 µM (≈ 2.29 µg/mL) | MIC [3, 10]: 2.3 µM (≈ 0.835 µg/mL) | MIC [3, 11]: 6.3 µM (≈ 2.29 µg/mL) | MIC [3, 12]: 4.7 µM (≈ 1.71 µg/mL) | MIC [3, 13]: 1.6 µM (≈ 0.581 µg/mL) | loss of MIC potency ([3]; relative to comparator of the series (21 vs thiophenes; 42 vs 24)): 10 fold | chromatographic logD [5]: 2.2 | Mouse micro Cl [6, 16]: 8.6 mLmin/g | Microsomal Cli ([6]; supplement data table): 8.6 mL/min/g

COC(=O)c1c(C)noc1NC(=O)c1c(F)c(F)c(F)c(F)c1F [Compound 22, COC(=O)c1c(noc1NC(=O)c1c(c(c(c(c1F)F)F)F)F)C]
IC50 [1]: > 100 µM | solubility kinetic [2, 7]: 242 µM (≈ 84.7 µg/mL) | solubility kinetic ([2]; read-out: Kin. Sol): 242 µM (≈ 84.7 µg/mL) | MIC [3, 8]: 0.97 µM (≈ 0.34 µg/mL) | MIC [3, 9]: 3.1 µM (≈ 1.09 µg/mL) | MIC [3, 10]: 1 µM (≈ 0.35 µg/mL) | MIC [3, 11]: 3.1 µM (≈ 1.09 µg/mL) | MIC [3, 12]: 2.3 µM (≈ 0.805 µg/mL) | MIC [3, 13]: 0.8 µM (≈ 0.28 µg/mL) | Hepatocyte Cli ([4]; mouse): 46 mL/min/g | Mouse Heps Cl ([4]; mouse, hepatocytes): 45.6 mLmin/g | chromatographic logD [5]: 1.5 | Microsomal Cli ([6]; CD1, mouse): 3.8 mL/min/g | Mouse micro Cl ([6]; mouse, microsomes): 3.8 mLmin/g

COC(=O)c1nc(C)oc1NC(=O)c1c(F)c(F)c(F)c(F)c1F [Compound 23, COC(=O)c1nc(oc1NC(=O)c1c(c(c(c(c1F)F)F)F)F)C]
IC50 [1]: > 100 µM | solubility kinetic [2, 7]: 237 µM (≈ 83 µg/mL) | solubility kinetic ([2]; read-out: Kin. Sol): 237 µM (≈ 83 µg/mL) | MIC [3, 8]: 0.6 µM (≈ 0.21 µg/mL) | MIC [3, 9]: 1.2 µM (≈ 0.42 µg/mL) | MIC [3, 10]: 0.6 µM (≈ 0.21 µg/mL) | MIC [3, 11]: 1.2 µM (≈ 0.42 µg/mL) | MIC [3, 12]: 1.2 µM (≈ 0.42 µg/mL) | MIC [3, 13]: 0.6 µM (≈ 0.21 µg/mL) | Hepatocyte Cli ([4]; mouse): 8.1 mL/min/g | Mouse Heps Cl ([4]; mouse, hepatocytes): 8.1 mLmin/g | chromatographic logD [5]: 1.4 | Microsomal Cli ([6]; CD1, mouse): <0.5 mL/min/g | Mouse micro Cl ([6]; mouse, microsomes): <0.5 mLmin/g

CCOC(=O)c1nc(C)oc1NC(=O)c1c(F)c(F)c(F)c(F)c1F [Compound 24, CCOC(=O)c1nc(oc1NC(=O)c1c(c(c(c(c1F)F)F)F)F)C]
IC50 [1]: > 100 µM | solubility kinetic [2, 7]: 204 µM (≈ 74.3 µg/mL) | solubility kinetic ([2]; read-out: Kin. Sol): 204 µM (≈ 74.3 µg/mL) | MIC [3, 8]: 0.27 µM (≈ 0.0983 µg/mL) | MIC [3, 9]: 0.6 µM (≈ 0.219 µg/mL) | MIC [3, 10]: 0.271 µM (≈ 0.0987 µg/mL) | MIC [3, 11]: 0.6 µM (≈ 0.219 µg/mL) | MIC [3, 12]: 0.434 µM (≈ 0.158 µg/mL) | MIC [3, 13]: 0.168 µM (≈ 0.0612 µg/mL) | MIC ([3]; read-out: H37Rv MIC A): 0.3 µM (≈ 0.109 µg/mL) | Hepatocyte Cli ([4]; mouse): 12 mL/min/g | chromatographic logD [5]: 1.8 | Microsomal Cli ([6]; CD1, mouse): <0.5 mL/min/g

CCOC(=O)c1nc(C)oc1NC(=O)c1cc(F)c(F)c(F)c1F [Compound 25, CCOC(=O)c1nc(oc1NC(=O)c1cc(c(c(c1F)F)F)F)C]
IC50 [1]: > 100 µM | solubility kinetic [2, 7]: 136 µM (≈ 47.1 µg/mL) | solubility kinetic ([2]; read-out: Kin. Sol): 136 µM (≈ 47.1 µg/mL) | MIC [3, 8]: 0.3 µM (≈ 0.104 µg/mL) | MIC [3, 9]: 0.6 µM (≈ 0.208 µg/mL) | MIC [3, 10]: 0.3 µM (≈ 0.104 µg/mL) | MIC [3, 11]: 0.6 µM (≈ 0.208 µg/mL) | MIC [3, 12]: 0.6 µM (≈ 0.208 µg/mL) | MIC [3, 13]: 0.3 µM (≈ 0.104 µg/mL) | Hepatocyte Cli ([4]; mouse): 17 mL/min/g | Mouse Heps Cl ([4]; mouse, hepatocytes): 17 mLmin/g | chromatographic logD [5]: 2.5 | Microsomal Cli ([6]; CD1, mouse): 5.1 mL/min/g | Mouse micro Cl ([6]; mouse, microsomes): 5.1 mLmin/g

CCOC(=O)c1nc(C)oc1NC(=O)c1cc(F)c(F)c(F)c1 [Compound 26, CCOC(=O)c1nc(oc1NC(=O)c1cc(c(c(c1)F)F)F)C]
solubility kinetic [2, 14]: 241 µM (≈ 79.1 µg/mL) | solubility kinetic [2, 15]: 241 µM (≈ 79.1 µg/mL) | MIC [3, 8]: > 50 µM | MIC [3, 9]: > 50 µM | MIC [3, 10]: > 50 µM | MIC [3, 11]: > 50 µM | MIC [3, 12]: > 50 µM | MIC [3, 13]: > 50 µM | chromatographic logD [5]: 2.3 | Mouse micro Cl [6, 16]: 7.1 mLmin/g | Microsomal Cli ([6]; supplement data table): 7.1 mL/min/g

CCOC(=O)c1nc(C)oc1NC(=O)c1c(F)cc(F)c(F)c1F [Compound 27, CCOC(=O)c1nc(oc1NC(=O)c1c(cc(c(c1F)F)F)F)C]
IC50 [1]: > 100 µM | solubility kinetic [2, 7]: 232 µM (≈ 80.3 µg/mL) | solubility kinetic ([2]; read-out: Kin. Sol): 232 µM (≈ 80.3 µg/mL) | MIC [3, 8]: 3.1 µM (≈ 1.07 µg/mL) | MIC [3, 9]: 4.7 µM (≈ 1.63 µg/mL) | MIC [3, 10]: 3.1 µM (≈ 1.07 µg/mL) | MIC [3, 11]: 4.7 µM (≈ 1.63 µg/mL) | MIC [3, 12]: 4.7 µM (≈ 1.63 µg/mL) | MIC [3, 13]: 2.3 µM (≈ 0.796 µg/mL) | Hepatocyte Cli ([4]; mouse): 3.4 mL/min/g | Mouse Heps Cl ([4]; mouse, hepatocytes): 3.4 mLmin/g | chromatographic logD [5]: 1.9 | Microsomal Cli ([6]; CD1, mouse): 0.8 mL/min/g | Mouse micro Cl ([6]; mouse, microsomes): 0.80 mLmin/g

Source: paper PMC11915372, “Identification of a Series Containing a Pentafluorophenyl Moiety That Targets Pks13 to Inhibit Growth of Mycobacterium tuberculosis” (ACS Infectious Diseases, 2025)
